Key:
[1] = system: radiation-induced lung fibrosis; experiment: Mouse radiation-induced lung fibrosis model: lung density by HRCT; format: in vivo; settings: 14.5 Gy irradiated mice, treated 8 weeks from week 16, measured at 24 weeks; FIG. 2
Description: The objective of this study was to compare the activity of pamrevlumab monotherapy to either pirfenidone or nintedanib alone, and to evaluate the potential for enhanced activity of the combined agents. […] In this study, mice received thoracic irradiation (RT), followed by the therapeutic administration of the agents at 16 weeks post-irradiation when lung remodeling was evident by HRCT. After 8 weeks of drug treatment, lung density and volume were assessed by HRCT, lung function was assessed by blood gas analysis, and mice were sacrificed for histologic and gene expression analysis. C57B1/6 mice were irradiated with 14.5 Gy photons; full thorax, single dose. Treatment with therapeutic agent(s) (pamrevlumab, pirfenidone, and/or nintedanib) was initiated 16 weeks post-irradiation and continued for 8 weeks. Pamrevlumab (FG) was given IP, BIW, at 40 mg/kg; pirfenidone (PF) was given PO in chow, QD, at 300 mg/kg; nintedanib (ND) was given PO in chow, QD, at 100 mg/kg. Treatment with each agent alone, with combinations of two, and with a triple combination were carried out. Controls included non-irradiated mice, mice that were irradiated and not treated, and mice that were irradiated and given human IgG. Endpoint measurements were taken at 24 weeks for HRCT (lung structure), blood gas analysis (lung function), histology and gene expression analysis. […]

[2] = system: IPF; experiment: Phase two study in IPF patients: St. George's Respiratory Questionnaire (SGRQ); format: in vivo, human; settings: 48 weeks treatment, compared with placebo, FIGS. 5A-5D
Description: A double-blind, placebo-controlled Phase two study was conducted in which 103 patients, randomized (1:1) to receive pamrevlumab or placebo, were treated for 48 weeks. Patients' self-administered the Saint George's Respiratory Questionnaire (SGRQ) to assess changes in health-related quality of life parameters over the course of the study. This questionnaire was developed for patients with chronic airflow limitation and the results correlate well with established measures of symptom level, disease activity and disability. Patients completed the SGRQ on Day 1 (baseline) and every 12 weeks thereafter during the 48-week treatment period. The SGRQ comprises three domains (symptoms, activity, and impact) with the score for each domain ranging from 0 to 100, with higher scores indicating worse health-related quality of life (Jones P W, et al. Respir Med 1991; 85:Suppl B:25-31; Barr J T et al. Clin Ther 2000; 22:1121-45).

[3] = system: fibrosis genes in irradiated lung; experiment: Microarray analysis of mRNA transcripts in irradiated lung; format: in vivo, mouse
Description: C57B1/6 mice were irradiated with 14.5 Gy photons; full thorax, single dose. Treatment with therapeutic agent(s) (pamrevlumab, pirfenidone, and/or nintedanib) was initiated 16 weeks post-irradiation and continued for 8 weeks. Pamrevlumab (FG) was given IP, BIW, at 40 mg/kg; pirfenidone (PF) was given PO in chow, QD, at 300 mg/kg; nintedanib (ND) was given PO in chow, QD, at 100 mg/kg. Treatment with each agent alone, with combinations of two, and with a triple combination were carried out. Controls included non-irradiated mice, mice that were irradiated and not treated, and mice that were irradiated and given human IgG. Endpoint measurements were taken at 24 weeks for HRCT (lung structure), blood gas analysis (lung function), histology and gene expression analysis.
Microarray analysis of mRNA transcripts of numerous genes at 24 weeks after RT were carried out by standard techniques to compare the expression profiles of irradiated and treated animals to irradiated animals that were not further treated. The results of the later group, RT (control), were used to normalize the expression data from the other groups. Briefly, RNA from 4-7 animals per condition (RT (control), RT+hIgG, RT+FG, RT+ND, RT+PF, RT+FG+ND, RT+FG+PF, RT+ND+PF, RT+FG+ND+PF). Affymetrix 430 2.0 data was used. RT induced changes (≥1.5×, p<0.05) were filtered for treatment dependent correction (>50% correction, p<0.05). 80 RT-induced and 68 RT-suppressed transcripts were normalized at least 50% by one or more treatments. The resulting list was dominated by pamrevlumab-dependent normalization. Functional analysis indicated pamrevlumab treatment preferentially normalized RT genes known to be regulated by TGFβ and TNF.

[4] = system: IPF; experiment: Phase two study in IPF patients: UCSD Shortness of Breath Questionnaire (UCSD-SOBQ); format: in vivo, human; settings: for mean UCSD-SOBQ score: IPF patients, n=22, FIG. 6 change from baseline
Excerpt: A sub-set of patients in the Phase two clinical trial described above in Example 2 (pamrevlumab n=22, placebo n=20), self-administered the University of California, San Diego—Shortness of Breath Questionnaire (UCSD-SOBQ) at the start of therapy (baseline) and then every 12 weeks while enrolled in the 48 week study. The UCSD-SOBQ has been validated as an acceptable measure to assess change in dyspnea over time in IPF (Swigris et al., Respir Med. 2012 October; 106(10): 1447-1455).
The questionnaire has 24 sections that assess dyspnea associated with activities of daily living (ADLs) in different lung disorders, including IPF. Twenty-one sections relate to the severity of dyspnea experienced during different daily activities, while three sections assess the limitations due to shortness of breath, fear of harm from overexertion and fear of shortness of breath. Each question has a 6-point scale (0=“not at all” to 5=“maximal or unable to do because of breathlessness”. The total score ranges from 0 to 120, with higher scores indicating greater dyspnea.
An ANCOVA model with treatment as fixed effect and baseline UCSD-SOBQ score as covariate was applied to observed and imputed data at each visit. Missing results at post-baseline visits were mputed using the predicted values from a random coefficient model. The analysis included all subjects who had baseline and at least one post-baseline UCSD-SOBQ evaluation.

[5] = irradiated mouse lung, 24 weeks after RT, 8 weeks treatment, RT fold change 0.4

## pamrevlumab
[1]
  radiation-induced increase in lung density (Hounsfield Units): significantly inhibited the increase in radiation-induced lung density from baseline
[2]
  SGRQ all domains (symptoms, activity, impact) and total score, change from baseline: improvement (lower values)
[3]; irradiated mouse lung, 24 weeks after RT, 8 weeks treatment, RT fold change 0.3
  % Normalization of gene expression, Igfbp5: 70%
[3]; [5]
  % Normalization of gene expression, Abca3: 75%
  % Normalization of gene expression, Gdf2: 68%
[3]; irradiated mouse lung, 24 weeks after RT, 8 weeks treatment, RT fold change 0.5
  % Normalization of gene expression, Cx3cl1: 57%
[3]; irradiated mouse lung, 24 weeks after RT, 8 weeks treatment, RT fold change 2.0
  % Normalization of gene expression, Retnla: 43%
[3]; irradiated mouse lung, 24 weeks after RT, 8 weeks treatment, RT fold change 2.1
  % Normalization of gene expression, Nt5e: 53%
[3]; irradiated mouse lung, 24 weeks after RT, 8 weeks treatment, RT fold change 2.2
  % Normalization of gene expression, Plat: 51%
[3]; irradiated mouse lung, 24 weeks after RT, 8 weeks treatment, RT fold change 2.4
  % Normalization of gene expression, Ccr2: 37%
[3]; irradiated mouse lung, 24 weeks after RT, 8 weeks treatment, RT fold change 2.6
  % Normalization of gene expression, Igfbp7: 50%
[3]; irradiated mouse lung, 24 weeks after RT, 8 weeks treatment, RT fold change 2.7
  % Normalization of gene expression, Cdkn2a: 35%
[3]; irradiated mouse lung, 24 weeks after RT, 8 weeks treatment, RT fold change 5.3
  % Normalization of gene expression, Apln: 59%
[3]; irradiated mouse lung, 24 weeks after RT, 8 weeks treatment, RT fold change 6.9
  % Normalization of gene expression, Wisp1: 52%
[3]; irradiated mouse lung, 24 weeks after RT, 8 weeks treatment, RT fold change 11.9
  % Normalization of gene expression, Wisp1: 54%
[3]; microarray at 24 weeks after RT, monotherapies compared
  normalization of fibrosis-related transcripts: normalized more fibrosis-related transcripts than other monotherapies
[4]; Week 12
  mean UCSD-SOBQ score: 1.98
[4]; Week 36
  mean UCSD-SOBQ score: 3.76
[4]; Week 48
  mean UCSD-SOBQ score: 2.26
[4]; pamrevlumab vs placebo, Week 48, p-value=0.0460
  difference in mean UCSD-SOBQ score between the two arms: −13.32 points

Source: US20190127456A1, “METHODS OF TREATING IDIOPATHIC PULMONARY FIBROSIS” (FibroGen, Inc., priority 2017, published 2019)
